Counter-ions that a name gives are not always drawn.
Test system: NSCs
Experimental: RNAs isolated from NSCs and neurons with and without drug treatments were hybridized to Illumina HumanRef-8 BeadChip (Illumina, Inc., San Diego, Calif., performed by Microarray core facility at the Burnham Institute for Medical Research). The Illumina array data were normalized by the quantile method, and then transformed log 2 ratio values for a zero mean for expression values of each gene across all samples. The statistical and bioinformatics analyses were conducted by using R and the bioconductor package (www.bioconductor.org). The gene set enrichment analysis was conducted using the GSEA software (www.broad.mit.edu/gsea).
The comparative results are then measured by a non-parametric, running sum statistic termed the enrichment score. The enrichment score significance is assessed by 1,000 permutation tests to compute the enrichment p-value.

## CCCCc1oc2ccccc2c1C(=O)c1cc(I)c(OCCN(CC)CC)c(I)c1 [Amiodarone Hydrochloride]
Enriched In Untreated Nscs
  Nes: Acetyltransferase Activity: −1.239
  Nes: Amine Transmembrane Transporter Activity: −0.9002
  Nes: Amino Acid Transmembrane Transporter Activity: −0.9455
  Nes: Atp Dependent Helicase Activity: −1.499
  Nes: Atp Dependent Rna Helicase Activity: −1.626
  Nes: Atpase Activity: −0.8253
  Nes: Atpase Activity Coupled: −1.068
  Nes: Atpase Activity Coupled To Movement Of Substances: −0.3743
  Nes: Atpase Activity Coupled To Transmembrane Movement Of Ions: −0.543
  Nes: Calcium Ion Binding: −1.593
  Nes: Carbohydrate Binding: −0.9729
  Nes: Carboxylic Acid Transmembrane Transporter Activity: −0.8373
  Nes: Cation Binding: −1.033
  Nes: Chromatin Binding: −1.015
  Nes: Cofactor Binding: −0.9326
  Nes: Cytokine Activity: −1.381
  Nes: Cytokine Binding: −1.174
  Nes: Damaged Dna Binding: −1.1681
  Nes: Dna Dependent Atpase Activity: −1.2
  Nes: Dna Helicase Activity: −0.5542
  Nes: Double Stranded Dna Binding: −0.4584
  Nes: Electron Carrier Activity: −0.6307
  Nes: Enzyme Activator Activity: −1.024
  Nes: Exopeptidase Activity: −0.915
  Nes: Glycosaminoglycan Binding: −0.9127
  Nes: Growth Factor Activity: −1.254
  Nes: Gtp Binding: −0.9695
  Nes: Gtpase Activity: −0.811
  Nes: Guanyl Nucleotide Binding: −1.265
  Nes: Helicase Activity: −1.374
  Nes: Heparin Binding: −1.015
  Nes: Hormone Activity: −1.196
  Nes: Hydrogen Ion Transmembrane Transporter Activity: −1.077
  Nes: Hydrolase Activity Acting On Acid Anhydrides: −0.9907
  Nes: Hydrolase Activity Acting On Acid Anhydrides Catalyzing Transmembrane Movement Of Substances: −0.4097
  Nes: Hydrolase Activity Acting On Carbon Nitrogen But Not Peptide Bonds: −0.7823
  Nes: Ion Binding: −1.044
  Nes: Kinase Activity: −0.9611
  Nes: Kinase Inhibitor Activity: −0.8002
  Nes: Kinase Regulator Activity: −0.9286
  Nes: Lipase Activity: −1.055
  Nes: Lipid Binding: −1.147
  Nes: Magnesium Ion Binding: −1.1144
  Nes: Metallopeptidase Activity: −1.06
  Nes: Microtubule Binding: −0.7143
  Nes: N Acetyltransferase Activity: −1.282
  Nes: N Acyltransferase Activity: −1.201
  Nes: Nucleobase Nucleoside Nucleotide Kinase Activity: −1.417
  Nes: Nucleoside Triphosphatase Activity: −0.8995
  Nes: Nucleotidyltransferase Activity: −0.6782
  Nes: Organic Acid Transmembrane Transporter Activity: −0.8193
  Nes: Oxidoreductase Activity Acting On Nadh Or Nadph: −1.092
  Nes: Oxidoreductase Activity Acting On The Ch Ch Group Of Donors: −1.2992
  Nes: Pattern Binding: −0.8999
  Nes: Peptide Binding: −0.9386
  Nes: Phospholipid Binding: −1.255
  Nes: Phosphotransferase Activity Alcohol Group As Acceptor: −0.929
  Nes: Phosphotransferase Activity Phosphate Group As Acceptor: −1.665
  Nes: Polysaccharide Binding: −0.9675
  Nes: Primary Active Transmembrane Transporter Activity: −0.3858
  Nes: Protein Dimerization Activity: −1.017
  Nes: Protein Heterodimerization Activity: −1.3399
  Nes: Protein Homodimerization Activity: −0.801
  Nes: Protein Kinase Inhibitor Activity: −0.7805
  Nes: Protein Kinase Regulator Activity: −0.8809
  Nes: Protein N Terminus Binding: −0.5542
  Nes: Pyrophosphatase Activity: −1.053
  Nes: Ras Gtpase Binding: −0.9567
  Nes: Receptor Activity: −1.044
  Nes: Receptor Binding: −1.0604
  Nes: Receptor Signaling Protein Serine Threonine Kinase Activity: −0.7954
  Nes: Rhodopsin Like Receptor Activity: −1.049
  Nes: Rna Binding: −0.6659
  Nes: Rna Dependent Atpase Activity: −1.8058
  Nes: Rna Helicase Activity: −1.68
  Nes: Signal Sequence Binding: −0.8286
  Nes: Structural Constituent Of Ribosome: −0.6343
  Nes: Transferase Activity Transferring Acyl Groups: −0.9146
  Nes: Transferase Activity Transferring Hexosyl Groups: −0.8814
  Nes: Transferase Activity Transferring Phosphorus Containing Groups: −1.002
  Nes: Transmembrane Receptor Activity: −1.132
  Nes: Tubulin Binding: −1.169
  Nes: Udp Glycosyltransferase Activity: −0.9459
Enriched in treated NSCs
  Nes: Acid Amino Acid Ligase Activity: 0.7777
  Nes: Actin Binding: 0.7455
  Nes: Actin Filament Binding: 1.029
  Nes: Active Transmembrane Transporter Activity: 0.8495
  Nes: Adenyl Nucleotide Binding: 0.9485
  Nes: Adenyl Ribonucleotide Binding: 0.9696
  Nes: Anion Transmembrane Transporter Activity: 1.216
  Nes: Atp Binding: 0.8813
  Nes: Calmodulin Binding: 0.7204
  Nes: Carbon Oxygen Lyase Activity: 0.4048
  Nes: Cation Channel Activity: 0.9023
  Nes: Cation Transmembrane Transporter Activity: 1.013
  Nes: Cysteine Type Endopeptidase Activity: 1.621
  Nes: Cysteine Type Peptidase Activity: 1.575
  Nes: Deoxyribonuclease Activity: 1.357
  Nes: Endonuclease Activity: 0.5289
  Nes: Endopeptidase Activity: 1.466
  Nes: Enzyme Binding: 0.9684
  Nes: Enzyme Inhibitor Activity: 1.362
  Nes: Enzyme Regulator Activity: 1.305
  Nes: Exonuclease Activity: 1.423
  Nes: Gated Channel Activity: 0.8726
  Nes: General Rna Polymerase Ii Transcription Factor Activity: 0.772
  Nes: Growth Factor Binding: 1.135
  Nes: Gtpase Activator Activity: 1.186
  Nes: Gtpase Binding: 0.9586
  Nes: Gtpase Regulator Activity: 1.412
  Nes: Guanyl Nucleotide Exchange Factor Activity: 1.287
  Nes: Hematopoietin Interferon Class D200 Domain Cytokine Receptor Activity: 0.7947
  Nes: Hormone Receptor Binding: 0.621
  Nes: Hydro Lyase Activity: 0.5564
  Nes: Hydrolase Activity Acting On Ester Bonds: 1.181
  Nes: Hydrolase Activity Acting On Glycosyl Bonds: 1.049
  Nes: Hydrolase Activity Hydrolyzing O Glycosyl Compounds: 1.219
  Nes: Inorganic Cation Transmembrane Transporter Activity: 0.6802
  Nes: Ion Channel Activity: 1.255
  Nes: Ion Transmembrane Transporter Activity: 1.185
  Nes: Isomerase Activity: 1.154
  Nes: Kinase Binding: 0.6301
  Nes: Ligase Activity: 0.4673
  Nes: Ligase Activity Forming Carbon Nitrogen Bonds: 0.6937
  Nes: Lyase Activity: 1.018
  Nes: Metal Ion Transmembrane Transporter Activity: 1.036
  Nes: Methyltransferase Activity: 0.9044
  Nes: Molecular Adaptor Activity: 1.189
  Nes: Monovalent Inorganic Cation Transmembrane Transporter Activity: 0.7857
  Nes: Motor Activity: 1.105
  Nes: Mrna Binding: 1.006
  Nes: Nuclease Activity: 0.9393
  Nes: Nucleotide Binding: 0.8932
  Nes: Oxidoreductase Activity: 0.9865
  Nes: Oxidoreductase Activity Acting On Ch Oh Group Of Donors: 0.8656
  Nes: Oxidoreductase Activity Go 0016705: 1.545
  Nes: Peptidase Activity: 1.4
  Nes: Phosphatase Regulator Activity: 0.456
  Nes: Phosphoprotein Phosphatase Activity: 1.51
  Nes: Phosphoric Diester Hydrolase Activity: 1.244
  Nes: Phosphoric Ester Hydrolase Activity: 1.31
  Nes: Phosphoric Monoester Hydrolase Activity: 1.31
  Nes: Protease Inhibitor Activity: 1.558
  Nes: Protein C Terminus Binding: 0.6675
  Nes: Protein Complex Binding: 1.312
  Nes: Protein Domain Specific Binding: 0.8643
  Nes: Protein Kinase Activity: 0.8772
  Nes: Protein Kinase Binding: 0.7501
  Nes: Protein Serine Threonine Kinase Activity: 0.8269
  Nes: Protein Serine Threonine Phosphatase Activity: 0.4942
  Nes: Protein Tyrosine Kinase Activity: 0.7818
  Nes: Protein Tyrosine Phosphatase Activity: 1.461
  Nes: Purine Nucleotide Binding: 0.8873
  Nes: Purine Ribonucleotide Binding: 0.9034
  Nes: Ras Gtpase Activator Activity: 0.9812
  Nes: Receptor Signaling Protein Activity: 0.7803
  Nes: Rho Gtpase Activator Activity: 0.9664
  Nes: Ribonuclease Activity: 0.4876
  Nes: Rna Splicing Factor Activity Transesterification Mechanism: 0.9542
  Nes: S Adenosylmethionine Dependent Methyltransferase Activity: 0.9978
  Nes: Secondary Active Transmembrane Transporter Activity: 1.221
  Nes: Sequence Specific Dna Binding: 0.8244
  Nes: Serine Hydrolase Activity: 1.672
  Nes: Serine Type Peptidase Activity: 1.65
  Nes: Sh3 Sh2 Adaptor Activity: 1.235
  Nes: Single Stranded Dna Binding: 0.9015
  Nes: Small Conjugating Protein Ligase Activity: 0.717
  Nes: Small Gtpase Binding: 0.9179
  Nes: Small Gtpase Regulator Activity: 1.109
  Nes: Small Protein Conjugating Enzyme Activity: 0.7314
  Nes: Specific Rna Polymerase Ii Transcription Factor Activity: 1.539
  Nes: Structural Constituent Of Cytoskeleton: 1.041
  Nes: Structural Constituent Of Muscle: 1.106
  Nes: Structural Molecule Activity: 0.7432
  Nes: Structure Specific Dna Binding: 0.7614
  Nes: Substrate Specific Channel Activity: 1.3
  Nes: Substrate Specific Transmembrane Transporter Activity: 1.04
  Nes: Substrate Specific Transporter Activity: 0.9263
  Nes: Transcription Activator Activity: 0.7812
  Nes: Transcription Coactivator Activity: 0.5439
  Nes: Transcription Cofactor Activity: 1.217
  Nes: Transcription Corepressor Activity: 1.692
  Nes: Transcription Factor Activity: 1.217
  Nes: Transcription Factor Binding: 1.248
  Nes: Transcription Repressor Activity: 1.653
  Nes: Transferase Activity Transferring Alkyl Or Aryl Other Than Methyl Groups: 0.6606
  Nes: Transferase Activity Transferring Glycosyl Groups: 0.6701
  Nes: Transferase Activity Transferring Groups Other Than Amino Acyl Groups: 0.6753
  Nes: Transferase Activity Transferring One Carbon Groups: 0.7951
  Nes: Transferase Activity Transferring Sulfur Containing Groups: 0.8435
  Nes: Transition Metal Ion Binding: 1.037
  Nes: Translation Factor Activity Nucleic Acid Binding: 0.81
  Nes: Translation Initiation Factor Activity: 0.4449
  Nes: Translation Regulator Activity: 0.9216
  Nes: Transmembrane Receptor Protein Kinase Activity: 0.7564
  Nes: Transmembrane Receptor Protein Tyrosine Kinase Activity: 0.9533
  Nes: Transmembrane Transporter Activity: 1.011
  Nes: Ubiquitin Protein Ligase Activity: 0.7536
  Nes: Zinc Ion Binding: 0.9797
